Results on one compound are retold here after patent US20190112357A1, “PREVENTION OF PROTEIN DISULFIDE BOND REDUCTION” (MedImmune, LLC, priority 2016, published 2019).

Common to all, as to assay type: physicochemical
Series [1] is described as follows: Antibody reduction potential assay (Vacuum/GX). To be noted: EDTA 9.5, 19, 38 mM or Cystine 4 and 8 mM. The protocol:
Bioreactor samples (1 mL) were obtained daily and centrifuged at 3000-4000 RPM and the supernatant was frozen immediately at −80° C. On the day prior to the assay, the samples were removed from −80° C. storage, thawed, and placed in a vacuum chamber at room temperature overnight to induce reduction of the monoclonal antibody without the interference of oxygen. After the vacuum hold, the samples were analyzed for protein fragmentation under non-reducing conditions using a BioAnalyzer system (Agilent Technologies) or a LABCHIP® GXII system (PerkinElmer) to detect antibody fragments resulting from the breakage of the antibody's interchain disulfide bonds. […]
Samples were stored frozen until analyzed. […] After being denatured and the free thiols being capped by NEM, the samples were analyzed using a Perkin Elmer Labchip® GXII (Perkin Elmer, Waltham, Mass.) to perform size fractionation and quantification. Using the Labchip® GXII, the protein and fragments were detected by laser-induced fluorescence and translated into gel-like images (bands) and electropherograms (peaks).
Reduction potential, i.e. the potential of the molecule to be reduced under anaerobic condition, was measured by subjecting samples to vacuum analysis as described above followed addition of non-reducing sample buffer. […]

Series [2] in a line: Antibody aggregation analysis (HP-SEC). To be noted: EDTA 9.5, 19, 38 mM or Cystine 4 and 8 mM. The protocol: The percent of antibody aggregates was determined using standard size exclusion chromatography (HP-SEC) methods. An Agilent 1200 series system was used with a Tosoh Bioscience TSKgel G3000SW XL column (Tosoh Bioscience LLC, King of Prussia, Pa.) (7.8 mm×300 mm) at 1 mL/min flow rate using a mobile phase buffer of 0.1 M sodium phosphate, 0.1 M sodium sulfate, pH 6.8. The absorbance chromatography at 280 nm was used to quantify the results.
A general note: SEC sorts molecules by how far they enter the pores of the column.

The nature of series [3]: Non-reduced GX (NR-GX) analysis of HCCF and purification products. To be noted: 2 weeks at 2° C.-8° C., bags without headspace. The protocol: Samples were stored frozen until analyzed. Once thawed, 400-600 μL of each sample was transferred to culture tubes and mixed in non-reducing sample buffer containing N-Ethylmaleimide (NEM). After being denatured and the free thiols being capped by NEM, the samples were analyzed using a Perkin Elmer Labchip® GXII (Perkin Elmer, Waltham, Mass.) to perform size fractionation and quantification. Using the Labchip® GXII, the protein and fragments were detected by laser-induced fluorescence and translated into gel-like images (bands) and electropherograms (peaks).
The high levels of impurities were first detected in the capture product and were carried through the subsequent steps in the process.

Series [4] is described as follows: Free thiol quantitation in HCCF by disulfide mapping mass spectrometry. To be noted: 2 mM cystine, 2 week hold, versus starting material. The protocol:
The amount of free thiol in harvested cell culture fluid was determined by matching predicted masses of disulfide-linked peptides to observed masses from non-reducing Lys-C peptide mapping. Briefly, the sample was denatured and diluted prior to digestion with a serine protease. Following protease digestion, half of each reaction mixture was reduced by the addition of DTT. The digests were separated by RP-HPLC using a C18 column and analyzed using a UV-detector and an on-line mass spectrometer. Disulfide-bond linked peptides are only present in non-reducing runs and will disappear under reducing conditions.

Turning to `N[C@@H](CSSC[C@H](N)C(=O)O)C(=O)O` [cystine, L-cystine], in series [1], the “reduction potential at the time of harvest of sheared mAb E material” value is “no reduction potential”. Further, in series [2], the “aggregation of sheared mAb E material after 8 days at 2-8° C.” value is “limited the extent of mAb aggregation”. The “reduction of mAb B in HCCF by the end of the hold (NR-GX)” value is listed as “reduction had set in” in series [3] (2 mM cystine) and “no signs of reduction” in series [3] (4 mM cystine). Besides, in series [4], the “inter-chain free thiol in HCCF by the end of the hold” value is reported as “higher level of inter-chain free thiol”.
